Active and inactive are the calls of the source.
Tests used:
[1] = system: H9c2; experiment: cells; type: functional, cell-based; conditions: Rattus norvegicus, H9c2, Myocardium;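 note: confirmatory concentration-response retest of ultra-high-throughput screening hits for modulation of myocardial damage; cell death induced by hydrogen peroxide oxidative stress; compound pretreatment for 60 min then peroxide exposure for 2 h; potency is for protecting the cells against peroxide damage rather than for killing them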
[2] = molecular target: T1, Replicative DNA helicase DnaB (Mycobacterium tuberculosis, UniProt P9WMR3); experiment: DnaB intein splicing inhibitors, dose response, biochemical, cell-free fluorescence (AID 449749); type: functional
T1 sequence (P9WMR3 whole entry): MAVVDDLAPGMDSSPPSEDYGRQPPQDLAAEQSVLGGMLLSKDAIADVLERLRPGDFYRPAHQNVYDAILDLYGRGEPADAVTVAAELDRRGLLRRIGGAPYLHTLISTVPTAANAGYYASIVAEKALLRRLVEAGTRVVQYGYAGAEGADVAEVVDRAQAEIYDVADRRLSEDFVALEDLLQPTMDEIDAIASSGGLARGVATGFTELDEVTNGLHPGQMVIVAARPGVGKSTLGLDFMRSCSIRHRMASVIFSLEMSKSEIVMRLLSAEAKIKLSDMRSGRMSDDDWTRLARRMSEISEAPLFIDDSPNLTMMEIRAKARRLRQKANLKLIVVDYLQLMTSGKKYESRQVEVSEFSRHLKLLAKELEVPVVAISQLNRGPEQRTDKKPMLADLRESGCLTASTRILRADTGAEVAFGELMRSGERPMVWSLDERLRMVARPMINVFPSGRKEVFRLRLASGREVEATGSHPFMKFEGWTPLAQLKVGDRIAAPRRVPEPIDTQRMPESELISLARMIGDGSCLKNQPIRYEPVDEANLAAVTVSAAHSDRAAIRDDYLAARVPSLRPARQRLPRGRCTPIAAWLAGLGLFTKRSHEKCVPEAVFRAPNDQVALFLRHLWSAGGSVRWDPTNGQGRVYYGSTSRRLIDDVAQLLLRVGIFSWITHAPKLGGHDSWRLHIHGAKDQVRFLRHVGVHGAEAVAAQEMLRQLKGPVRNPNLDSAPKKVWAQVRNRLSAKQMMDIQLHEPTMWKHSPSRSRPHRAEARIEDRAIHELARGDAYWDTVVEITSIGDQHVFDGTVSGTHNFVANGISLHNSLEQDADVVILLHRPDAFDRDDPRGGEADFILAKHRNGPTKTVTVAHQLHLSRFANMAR

[3] = molecular target: T2, Protein RecA (Mycobacterium tuberculosis, UniProt P9WHJ3); experiment: Fluorescence Cell-Free Homogeneous Dose Retest to Identify Inhibitors of RecA-Intein Splicing Activity. [Related pubchem assays (depositor defined):AID2097, AID2223, AID489010, AID492950]; type: functional
T2 sequence (P9WHJ3 whole entry): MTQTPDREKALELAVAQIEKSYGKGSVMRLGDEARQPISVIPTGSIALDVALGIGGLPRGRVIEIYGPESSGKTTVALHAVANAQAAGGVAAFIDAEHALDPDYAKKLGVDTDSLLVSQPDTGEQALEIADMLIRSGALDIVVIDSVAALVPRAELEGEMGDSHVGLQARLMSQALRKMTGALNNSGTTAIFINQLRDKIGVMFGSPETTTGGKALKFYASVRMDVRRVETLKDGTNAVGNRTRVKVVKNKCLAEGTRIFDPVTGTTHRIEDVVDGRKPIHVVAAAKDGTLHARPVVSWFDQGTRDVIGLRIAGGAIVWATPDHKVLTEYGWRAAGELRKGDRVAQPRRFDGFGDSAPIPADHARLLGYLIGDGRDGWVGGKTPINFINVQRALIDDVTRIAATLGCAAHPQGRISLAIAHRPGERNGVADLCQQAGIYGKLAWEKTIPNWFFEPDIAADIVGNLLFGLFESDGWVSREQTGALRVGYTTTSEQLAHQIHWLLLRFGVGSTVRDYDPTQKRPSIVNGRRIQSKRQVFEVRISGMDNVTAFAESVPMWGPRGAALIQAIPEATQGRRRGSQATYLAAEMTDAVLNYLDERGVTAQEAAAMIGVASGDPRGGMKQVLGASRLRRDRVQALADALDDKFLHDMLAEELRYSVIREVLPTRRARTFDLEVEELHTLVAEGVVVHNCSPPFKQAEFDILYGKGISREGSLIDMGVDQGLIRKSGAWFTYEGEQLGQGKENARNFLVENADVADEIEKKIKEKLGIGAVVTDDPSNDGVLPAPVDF

[4] = molecular target: T3, Corticotropin-releasing factor receptor 2/Corticotropin-releasing factor-binding protein (Homo sapiens, UniProt P24387+Q13324); experiment: Dose Response confirmation of uHTS hits for small molecule antagonists of the CRF-binding protein and CRF-R2 receptor complex.; type: functional; conditions: read-out: IC50_Mean
T3 sequence (Q13324 whole entry): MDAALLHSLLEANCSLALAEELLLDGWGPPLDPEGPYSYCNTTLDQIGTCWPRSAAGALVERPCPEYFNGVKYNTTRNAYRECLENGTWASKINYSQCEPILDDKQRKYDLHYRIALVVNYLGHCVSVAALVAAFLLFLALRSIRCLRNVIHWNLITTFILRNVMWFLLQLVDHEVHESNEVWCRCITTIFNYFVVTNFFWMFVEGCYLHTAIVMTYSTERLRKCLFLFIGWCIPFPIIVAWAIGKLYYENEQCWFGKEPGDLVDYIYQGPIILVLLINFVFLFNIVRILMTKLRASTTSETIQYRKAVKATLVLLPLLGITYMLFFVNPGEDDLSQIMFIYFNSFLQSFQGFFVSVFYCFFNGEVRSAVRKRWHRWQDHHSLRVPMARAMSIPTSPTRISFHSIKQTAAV
T3 sequence (P24387 whole entry): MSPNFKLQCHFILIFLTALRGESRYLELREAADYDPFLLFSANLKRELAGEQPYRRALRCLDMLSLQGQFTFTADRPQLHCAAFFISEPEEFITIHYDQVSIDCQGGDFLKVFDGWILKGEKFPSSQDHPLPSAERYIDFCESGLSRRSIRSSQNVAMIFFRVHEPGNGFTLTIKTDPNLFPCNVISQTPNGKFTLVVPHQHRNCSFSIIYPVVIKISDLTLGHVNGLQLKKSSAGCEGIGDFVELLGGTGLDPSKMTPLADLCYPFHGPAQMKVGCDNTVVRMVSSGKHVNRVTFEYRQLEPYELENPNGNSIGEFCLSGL

[5] = molecular target: T3, Corticotropin-releasing factor receptor 2/Corticotropin-releasing factor-binding protein; experiment: activators of CRF receptor 2 with binding protein – uHTS hits, confirmation (AID 602473); type: functional; conditions: read-out: EC50_Mean
[6] = molecular target: T4, Fatty acid synthase (Homo sapiens, UniProt P49327); experiment: FAS thioesterase domain inhibitors, dose response, biochemical, endpoint fluorescence intensity, uHTS hits (AID 624327); type: functional;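 note: fluorescence from hydrolysis of an O-methyl fluorescein acyl ester substrate by the enzyme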
[7] = molecular target: T4, Fatty acid synthase; experiment: FAS thioesterase domain inhibitors, dose response, biochemical, kinetic fluorescence intensity (AID 624326); type: functional;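 note: rate of fluorescence rise from hydrolysis of a fluorogenic O-methyl fluorescein ester substrate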
[8] = NIH-3T3 fibroblast cytotoxicity, dose response, cytotoxicity control, cell-based, fluorescence, Alamar Blue, secondary assay (AID 2327); type: functional;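 note: NIH-3T3 mouse fibroblasts cultured with fluconazole at 8 µg/mL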
[9] = C. albicans growth with fluconazole, confirmation, fluorescence, retest (AID 2467); type: functional, cell-based

T4 sequence (P49327 whole entry, the tested form may be a part): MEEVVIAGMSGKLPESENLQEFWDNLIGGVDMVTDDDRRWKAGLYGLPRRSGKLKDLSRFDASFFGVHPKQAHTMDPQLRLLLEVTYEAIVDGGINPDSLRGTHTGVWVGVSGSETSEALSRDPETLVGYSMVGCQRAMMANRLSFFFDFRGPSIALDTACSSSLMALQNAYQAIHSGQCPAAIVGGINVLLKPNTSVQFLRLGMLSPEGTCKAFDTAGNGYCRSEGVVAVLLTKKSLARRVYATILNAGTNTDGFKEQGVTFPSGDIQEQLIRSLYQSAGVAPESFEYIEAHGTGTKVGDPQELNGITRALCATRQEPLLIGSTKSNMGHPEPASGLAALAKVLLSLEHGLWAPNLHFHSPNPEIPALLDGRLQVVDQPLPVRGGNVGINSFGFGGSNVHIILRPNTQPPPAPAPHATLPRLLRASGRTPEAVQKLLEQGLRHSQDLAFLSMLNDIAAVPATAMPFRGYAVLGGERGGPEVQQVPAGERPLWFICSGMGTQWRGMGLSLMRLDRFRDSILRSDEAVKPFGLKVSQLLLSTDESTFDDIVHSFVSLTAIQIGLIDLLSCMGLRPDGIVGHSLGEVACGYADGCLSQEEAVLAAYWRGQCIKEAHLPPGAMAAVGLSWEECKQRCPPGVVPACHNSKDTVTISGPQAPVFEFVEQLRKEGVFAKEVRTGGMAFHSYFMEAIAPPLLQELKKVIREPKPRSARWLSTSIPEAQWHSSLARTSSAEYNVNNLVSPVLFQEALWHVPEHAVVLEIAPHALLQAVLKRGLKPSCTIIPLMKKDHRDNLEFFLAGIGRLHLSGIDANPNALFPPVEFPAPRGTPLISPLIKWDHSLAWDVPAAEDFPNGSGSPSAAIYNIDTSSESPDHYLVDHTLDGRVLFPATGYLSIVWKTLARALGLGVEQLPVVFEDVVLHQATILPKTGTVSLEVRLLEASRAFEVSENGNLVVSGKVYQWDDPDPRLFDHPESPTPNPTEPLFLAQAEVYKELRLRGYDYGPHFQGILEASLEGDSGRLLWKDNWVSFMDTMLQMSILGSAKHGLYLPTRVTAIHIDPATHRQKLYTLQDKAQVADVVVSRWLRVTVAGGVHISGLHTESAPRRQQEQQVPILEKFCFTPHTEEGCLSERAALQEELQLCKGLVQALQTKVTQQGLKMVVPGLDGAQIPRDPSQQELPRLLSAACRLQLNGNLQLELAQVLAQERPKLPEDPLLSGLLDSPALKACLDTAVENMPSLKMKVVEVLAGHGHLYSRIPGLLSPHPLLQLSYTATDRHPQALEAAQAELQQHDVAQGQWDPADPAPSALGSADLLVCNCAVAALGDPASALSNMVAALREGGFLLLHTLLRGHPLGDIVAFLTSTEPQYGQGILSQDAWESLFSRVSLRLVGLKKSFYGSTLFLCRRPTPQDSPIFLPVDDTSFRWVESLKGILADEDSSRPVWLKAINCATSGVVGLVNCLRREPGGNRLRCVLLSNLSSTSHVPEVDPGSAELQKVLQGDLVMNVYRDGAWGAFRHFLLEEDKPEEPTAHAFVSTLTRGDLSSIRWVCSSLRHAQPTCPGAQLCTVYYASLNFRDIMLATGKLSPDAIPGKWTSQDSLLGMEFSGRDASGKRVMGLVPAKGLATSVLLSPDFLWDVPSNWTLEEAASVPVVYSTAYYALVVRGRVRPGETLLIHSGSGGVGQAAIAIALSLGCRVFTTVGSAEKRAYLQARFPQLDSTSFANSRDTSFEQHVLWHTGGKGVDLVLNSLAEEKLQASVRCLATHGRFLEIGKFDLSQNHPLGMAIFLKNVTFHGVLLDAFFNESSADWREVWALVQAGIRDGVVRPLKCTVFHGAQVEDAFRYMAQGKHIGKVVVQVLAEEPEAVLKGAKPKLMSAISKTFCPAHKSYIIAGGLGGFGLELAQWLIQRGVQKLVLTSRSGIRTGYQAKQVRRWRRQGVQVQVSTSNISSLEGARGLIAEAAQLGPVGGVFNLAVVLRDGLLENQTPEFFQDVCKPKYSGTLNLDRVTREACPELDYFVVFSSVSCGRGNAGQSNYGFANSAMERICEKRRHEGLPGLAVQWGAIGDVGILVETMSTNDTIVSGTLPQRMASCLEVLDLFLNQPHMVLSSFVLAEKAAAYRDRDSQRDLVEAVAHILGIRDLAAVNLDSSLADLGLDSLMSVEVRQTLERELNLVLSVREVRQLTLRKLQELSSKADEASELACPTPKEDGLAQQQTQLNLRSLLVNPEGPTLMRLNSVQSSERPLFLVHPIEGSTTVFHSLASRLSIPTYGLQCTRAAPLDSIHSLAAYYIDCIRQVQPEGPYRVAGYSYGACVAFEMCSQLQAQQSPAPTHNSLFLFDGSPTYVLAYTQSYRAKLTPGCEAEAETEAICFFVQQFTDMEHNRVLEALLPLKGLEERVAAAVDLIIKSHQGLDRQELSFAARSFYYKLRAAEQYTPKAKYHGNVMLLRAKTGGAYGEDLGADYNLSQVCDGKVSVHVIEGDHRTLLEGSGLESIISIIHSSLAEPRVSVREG

COc1cc(CN2C[C@@H](CO)O[C@@H](n3cnc4c(Nc5ccccc5)ncnc43)C2)cc(OC)c1OC
IC50 [1]: 9.14 µM (active)

COc1ccc(C2CCCCCN2C(=O)C2CCN(S(=O)(=O)c3cccc(C(C)=O)c3)CC2)cc1 (centres undefined)
IC50 [1]: > 79 µM (inactive)

OC1=C2C(=Nc3nn(-c4ccccc4)c(O)c3C2c2ccc3c(c2)OCO3)CCC1 (centres undefined)
AC50 [2]: 40.9 µM (active)
EC50 [3]: 3.29 µM (active)

CCCN(C(=O)c1cc(Cl)nc2ccccc12)C1CCS(=O)(=O)C1 (centres undefined)
IC50 [4]: > 47.1 µM (inactive)
EC50 [5]: > 53 µM (inactive)

COc1cccc(CN2CCC(Oc3ccc(C(=O)NCc4ccccn4)cc3)CC2)c1O
IC50 [4]: > 47.1 µM (inactive)
EC50 [5]: > 53 µM (inactive)

O=C(NCCN1C(=O)S/C(=C\c2ccccc2)C1=O)C1CCN(S(=O)(=O)c2cccs2)CC1
IC50 [6]: 16.2 µM (active)
IC50 [7]: 18.1 µM (active)

CCN(CC(=O)Nc1ccc(NC(C)=O)cc1)C(=O)c1ccc(=O)n(C)n1
IC50 [4]: > 47.1 µM (inactive)
EC50 [5]: > 53 µM (inactive)

Cc1nn(-c2ccccc2)nc1C(=O)Nc1cccc(C(=O)NC2CC2)c1
IC50 [1]: > 79 µM (inactive)

COc1ccccc1C(=O)COC(=O)c1c(-c2ccccc2)noc1C
IC50 [4]: > 47.1 µM (inactive)
EC50 [5]: > 53 µM (inactive)

COc1ccc(C(=O)Nc2cc([N+](=O)[O-])ccc2N2CCCC2)cc1
IC50 [6]: 15.1 µM (active)
IC50 [7]: 12.3 µM (active)

CN(CC(=O)Nc1ccc(F)cc1)C(=O)COC(=O)c1cc([N+](=O)[O-])ccc1N1CCOCC1
IC50 [6]: 6.68 µM (active)
IC50 [7]: 7.99 µM (active)

CN(C(=O)c1sc2nc(N3CCOCC3)c3c(c2c1N)CCCC3)c1ccccc1
IC50 [1]: > 79 µM (inactive)

COc1ccccc1NC(=O)COC(=O)c1cc([N+](=O)[O-])ccc1N1CCCC1
IC50 [6]: 5 µM (active)
IC50 [7]: 6.41 µM (active)

O=C(Nc1ncc([N+](=O)[O-])s1)c1ccco1
AC50 [2]: 24.2 µM (active)
EC50 [3]: 17.4 µM (active)

CC1(C)Cc2ccccc2C(c2cc3ccccc3oc2=O)=N1
IC50 [4]: > 47.1 µM (inactive)
EC50 [5]: > 53 µM (inactive)

CCCc1cc(O)nc(SCC(=O)Nc2ccc(Br)cc2Br)n1
EC50 [8]: 84.5 µM (active)
EC50 [9]: 1.38 µM (active)

CC(C)(C)c1ccc(C(=O)CS(=O)(=O)c2ccccc2)cc1
IC50 [4]: > 47.1 µM (inactive)
EC50 [5]: > 53 µM (inactive)

C[C@H](NC(=O)c1[nH]cnc1C(=O)N[C@@H](CCCCNC(=O)OC(C)(C)C)C(=O)OC(C)(C)C)C(=O)OCc1ccccc1
IC50 [6]: 0.349 µM (active)
IC50 [7]: 0.176 µM (active)

O=C(COc1ccc(Cl)cc1Cl)Nc1ccccc1F
IC50 [4]: > 47.1 µM (inactive)
EC50 [5]: > 53 µM (inactive)

Source: ChEMBL document CHEMBL1201862, “PubChem BioAssay data set” (2004)
